Experimental data from US20120220624A1, “PYRAZOLO [3,4-B] PYRIDIN-4-ONE KINASE INHIBITORS” (priority 2009, published 2012).
Like-named read-outs stand apart in the source and are kept apart here.

Molecular target: T1, CDK5-p25 kinase (Homo sapiens, UniProt Q00535)
T1 construct: purchased Invitrogen PV4677
Experiment: CDK5-p25 kinase enzymatic assay
Type: biochemical
Conditions: 0.3 nM CDK5-p25, 1.5 uM peptide, 5 uM ATP
Protocol: CDK5-p25 kinase (Invitrogen PV4677) enzymatic activity was measured using electrophoretic separation and fluorescent detection to monitor phosphorylation of a fluorescently labeled histone H1-derived peptide substrate, FL29 (5-FAM-GGGPATPKKAKKL-CONH2, Caliper #760429)
First, 0.25 uL of serially diluted compound in DMSO at 100× concentration was transferred into each well of a 384-well polystyrene assay plate. To this was added 15 uL of a 1.67× enzyme solution (500 pM enzyme, 1 mM DTT (Sigma D9779), 1× reconstitution buffer with protease inhibitor (Caliper #700329 proprietary formulation)), followed by centrifugation for 1 min at 1000 rpm, and incubation for 5-15 min at room temperature to allow binding of compound to enzyme. To initiate the reaction, 10 uL of substrate/ATP mix (245 mM Hepes pH 7.5, 0.003% Brij 35, 0.004% Tween, 12.75 uM ATP, 3.75 uM FL29 peptide) were added to each well, followed by centrifugation at 1000 rpm for 1 min. The reaction was then incubated at room temperature for 30 min. Final assay conditions were: 0.3 nM CDK5-p25, 1.5 uM peptide, 5 uM ATP, 0.6 mM DTT, 1% DMSO, 98 mM HEPES pH 7.5.
After incubation, reactions were quenched by the addition of 45 uL Caliper termination solution (Caliper proprietary formula), followed by centrifugation at 1000 rpm for 1 min. Extent of reaction (percentage conversion of substrate to phosphorylated product) was then measured using the Caliper EZ II reader. Dose-response curves were created by plotting the inhibition of enzyme activity (normalized relative to vehicle treated and no ATP control reactions) as a function of the log of compound concentration. The curve was analyzed using a four parameter logistical fit to calculate IC50 values.

[1] = X marks bin <50 nM, read-out: IC50 potency, <50 nM
[2] = X marks bin 100 nM-499 nM, read-out: IC50 potency, 100 nM-499 nM
[3] = X marks bin 50 nM-99 nM, read-out: IC50 potency, 50 nM-99 nM
[4] = X marks bin 500 nM-3 μM, read-out: IC50 potency, 500 nM-3 μM

T1 sequence (Q00535 whole entry): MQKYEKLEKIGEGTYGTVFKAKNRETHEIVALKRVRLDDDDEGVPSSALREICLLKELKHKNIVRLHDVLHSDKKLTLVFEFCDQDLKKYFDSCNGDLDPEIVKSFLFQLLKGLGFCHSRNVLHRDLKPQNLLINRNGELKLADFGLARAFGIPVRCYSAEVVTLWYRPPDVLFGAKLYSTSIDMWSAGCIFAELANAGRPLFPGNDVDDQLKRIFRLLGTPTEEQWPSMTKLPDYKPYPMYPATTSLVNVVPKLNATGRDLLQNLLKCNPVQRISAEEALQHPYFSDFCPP
T1 sequence (Q15078 99-307 partner limits assumed): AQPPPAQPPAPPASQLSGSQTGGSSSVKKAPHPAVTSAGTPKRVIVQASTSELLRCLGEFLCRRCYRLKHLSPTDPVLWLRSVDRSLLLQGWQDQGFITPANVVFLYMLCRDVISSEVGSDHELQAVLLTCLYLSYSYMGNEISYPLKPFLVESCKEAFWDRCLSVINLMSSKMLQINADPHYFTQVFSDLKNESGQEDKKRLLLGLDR

O=c1cc(Cc2ccc3ccccc3c2)[nH]c2n[nH]c(C3CCC3)c12 [Example 1, 3-cyclobutyl-6-(2-naphthylmethyl)-2,7-dihydro-4H-pyrazolo[3,4-b]pyridin-4-one]
IC50 [1]: < 50 nM

O=c1cc(Cc2c(F)cccc2Cl)[nH]c2n[nH]c(C3CCC3)c12 [Example 2, 6-(2-chloro-6-fluorobenzyl)-3-cyclobutyl-2,7-dihydro-4H-pyrazolo[3,4-b]pyridin-4-one]
IC50 [2]: 100 to 499 nM

O=c1cc(Cc2ccc(-c3ccccc3)cc2)[nH]c2n[nH]c(C3CCC3)c12 [Example 3, 6-(biphenyl-4-ylmethyl)-3-cyclobutyl-2,7-dihydro-4H-pyrazolo[3,4-b]pyridin-4-one]
IC50 [3]: 50 to 99 nM

CC(C)(C)c1ccc(Cc2cc(=O)c3c(C4CCC4)[nH]nc3[nH]2)cc1 [Example 4, 6-(4-tert-butylbenzyl)-3-cyclobutyl-2,7-dihydro-4H-pyrazolo[3,4-b]pyridin-4-one]
IC50 [3]: 50 to 99 nM

O=c1cc(Cc2ccccc2-c2ccccc2)[nH]c2n[nH]c(C3CCC3)c12 [Example 5, 6-(biphenyl-2-ylmethyl)-3-cyclobutyl-2,7-dihydro-4H-pyrazolo[3,4-b]pyridin-4-one]
IC50 [2]: 100 to 499 nM

O=c1cc(Cc2ccc(Cl)c(Cl)c2)[nH]c2n[nH]c(C3CCC3)c12 [Example 6, 3-cyclobutyl-6-(3,4-dichlorobenzyl)-2,7-dihydro-4H-pyrazolo[3,4-b]pyridin-4-one]
IC50 [1]: < 50 nM

O=c1cc(CC2CCCCC2)[nH]c2n[nH]c(C3CCC3)c12 [Example 7, 3-cyclobutyl-6-(cyclohexylmethyl)-2,7-dihydro-4H-pyrazolo[3,4-b]pyridin-4-one]
IC50 [2]: 100 to 499 nM

O=c1cc(Cc2cc(F)cc(Cl)c2)[nH]c2n[nH]c(C3CCC3)c12 [Example 8, 6-(3-chloro-5-fluorobenzyl)-3-cyclobutyl-2,7-dihydro-4H-pyrazolo[3,4-b]pyridin-4-one]
IC50 [1]: < 50 nM

O=c1cc(Cc2ccc3ccccc3c2)[nH]c2n[nH]c(C3CC(F)(F)C3)c12 [Example 9, 3-(3,3-difluorocyclobutyl)-6-(naphthalen-2-ylmethyl)-2,7-dihydro-4H-pyrazolo[3,4-b]pyridin-4-one]
IC50 [4]: 500 to 3000 nM

O=c1cc(Cc2ccc3ccccc3c2)[nH]c2n[nH]c([C@H]3C[C@H](O)C3)c12 [Example 10, 3-(trans-3-hydroxycyclobutyl)-6-(naphthalen-2-ylmethyl)-2,7-dihydro-4H-pyrazolo[3,4-b]pyridin-4-one]
IC50 [1]: < 50 nM

O=c1cc(Cc2ccc3ccccc3c2)[nH]c2n[nH]c([C@H]3C[C@@H](O)C3)c12 [Example 11, 3-(cis-3-hydroxycyclobutyl)-6-(naphthalen-2-ylmethyl)-2,7-dihydro-4H-pyrazolo[3,4-b]pyridin-4-one]
IC50 [4]: 500 to 3000 nM

O=C1CC(c2[nH]nc3[nH]c(Cc4ccc5ccccc5c4)cc(=O)c23)C1 [Example 12, 6-(naphthalen-2-ylmethyl)-3-(3-oxocyclobutyl)-2,7-dihydro-4H-pyrazolo[3,4-b]pyridin-4-one]
IC50 [1]: < 50 nM
